From patent US10823735B2, “Monoclonal antibody for predicting tamoxifen response in breast cancer patients” (The University of Hong Kong, priority 2015, dated 2020)

Experiments:
[1] = system: MCF7-vector; experiment: Orthotopic nude mouse model, MCF7-vector; type: in vivo, nude mice; settings: mammary fat pad, daily subcutaneous injection in peanut oil
Description: (§1) Orthotopic mouse model—The cell lines mixed with Matrigel (BD Biosciences) at the ratio of 1:1 were inoculated into the abdominal mammary fat pad of the 5 to 6 week old female nude mice. When the tumor were palpable, the mice were randomized into treatment and control groups where treatment groups received daily subcutaneous injection of tamoxifen (Sigma) dissolved in peanut oil (Sigma) and the control groups received subcutaneous injection of the solvent only. Tumor sizes were measured by caliper and tumor volume was calculated as (length*width*width)/2. Tumor growth rate was expressed as the % of tumor volume change calculated as the tumor volume measured at the indicated time point normalized against the tumor volume at day 0*100%. This protocol has been reviewed and approved by Committee on the Use of Live Animals in Teaching and Research (CULATR), the University of Hong Kong (CULATR No.: 3259-14)
(§2) We further validated the effect of BQ323636.1 overexpression in conferring tamoxifen resistance using a nude mouse model. […] Tumor sizes were measured by caliper and tumor volume was calculated as (length*width*width)/2. Tumor growth rate was expressed as the % of tumor volume change calculated as the tumor volume measured at the indicated time point normalized against the tumor volume at day 0*100%. […]

[2] = system: ZR75-BQ323636.1 and MCF7-BQ323636.1; experiment: MTT assay, tamoxifen response of BQ323636.1 overexpressing cell lines; type: cell-based, Human; settings: BQ323636.1 overexpression versus empty vector cell lines
Description: Cell lines—Human breast cancer cell lines MCF7 and ZR-75-1 were purchased from American Type Culture Collection and were re-authenticated by short tandem repeat profiling (Zhang, Gong et al. 2013). MCF7 was cultured in Dulbecco's Modified Eagle's Medium supplemented with 10% FBS and 1% penicillin/streptomycin and ZR-75-1 was cultured in Improved Minimum Essential Medium (IMEM) supplemented with 5% FBS and 1% penicillin/streptomycin. LCC2 and AK-47 are the two tamoxifen resistant cell lines derived from MCF7 and ZR-75-1, respectively and were kindly provided by Dr. Robert Clarke (Georgetown University Medical School, Washington, D.C.) (Wong, Dai et al. 2006) and have been used in our previous study (Zhang, Gong et al. 2013). LCC2 and AK-47 were both cultured in IMEM supplemented with 5% charcoal-stripped FBS and 1% penicillin/streptomycin. All the cell lines used in this study have been passaged and kept fewer than 6 months after the re-authentication or thawing. […]
MTT assay—Cells were seeded at a density of 6×10^3 cells/well. […] Extinction of the samples was measured by the Infinite 200 microtiter plate reader (Tecan) at 570 nm with a reference wavelength at 750 nm. Background MTT readings were subtracted from the samples. […]

[3] = system: ZR75-BQ323636.1; experiment: Orthotopic nude mouse model, ZR75-BQ323636.1; type: in vivo, nude mice; settings: ZR75-BQ323636.1, mammary fat pad, daily subcutaneous injection in peanut oil
Description: as §1, §2

[4] = system: MCF7-BQ323636.1; experiment: Orthotopic nude mouse model, MCF7-BQ323636.1; type: in vivo, nude mice; settings: MCF7-BQ323636.1, mammary fat pad, daily subcutaneous injection in peanut oil
Description: as §1, §2

[5] = system: ZR75-vector; experiment: Orthotopic nude mouse model, ZR75-vector; type: in vivo, nude mice; settings: mammary fat pad, daily subcutaneous injection in peanut oil
Description: as §1, §2

CC/C(=C(\c1ccccc1)c1ccc(OCCN(C)C)cc1)c1ccccc1 [tamoxifen]
tumor growth versus solvent control group [1]: significantly reduced tumor growth | tamoxifen resistance in MTT assay [2]: induced the tamoxifen resistance | tumor growth versus solvent control group [3]: no change of tumor growth | tumor growth versus solvent control group [4]: no change of tumor growth | tumor growth versus solvent control group [5]: significantly reduced tumor growth
